Patent US7608619B2, “Substituted oxazole compounds with analgesic activity” (Gruenenthal GmbH, priority 2005, dated 2009)

biological target: T1, human μ-opiate receptor (Homo sapiens, UniProt P35372); assay: Affinity for the human μ-opiate receptor ([3H]-naloxone displacement, SPA, CHO-K1 membrane preparation); conditions: test substance 1 μmole/l; displacement of 1 nmole/l [3H]-naloxone; percentage inhibition of the specific binding; read-out: μ-opioid receptor, % inhibition [1 μM]
T1 construct: purchased Nen company, Zaventem, Belgium RB-HOM; host or cells: CHO-K1 cells (membrane preparation)
T1 sequence (P35372 whole entry): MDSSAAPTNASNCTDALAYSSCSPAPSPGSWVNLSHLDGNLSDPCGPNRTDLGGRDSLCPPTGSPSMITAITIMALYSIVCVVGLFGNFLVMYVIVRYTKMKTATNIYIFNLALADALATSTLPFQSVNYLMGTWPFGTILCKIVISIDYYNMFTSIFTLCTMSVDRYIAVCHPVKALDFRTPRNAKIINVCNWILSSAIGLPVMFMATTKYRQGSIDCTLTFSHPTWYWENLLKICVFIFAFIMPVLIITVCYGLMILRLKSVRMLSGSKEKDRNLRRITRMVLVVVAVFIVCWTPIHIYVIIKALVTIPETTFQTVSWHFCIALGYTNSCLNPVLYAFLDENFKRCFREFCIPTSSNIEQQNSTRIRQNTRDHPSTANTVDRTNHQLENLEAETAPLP
Protocol: Method for Determining the Affinity for the Human μ-Opiate Receptor
The receptor affinity for the human μ-opiate receptor is determined in a homogeneous batch in microtiter plates. For this purpose dilution series of the substances to be tested are incubated for 90 minutes at room temperature with a receptor membrane preparation (15-40 μg protein/250 μl incubation batch) of CHO-K1 cells, which express the human μ-opiate receptor (RB-HOM receptor membrane preparation from the Nen company, Zaventem, Belgium), in the presence of 1 nmole/l of the radioactive ligand [^3H]-naloxone (NET719, Nen company, Zaventem, Belgium) and 1 mg WGA-SPA beads (wheat germ agglutinin SPA beads from Amersham/Pharmacia, Freiburg, Germany) in a total volume of 250 μl. 50 mmole/l of Tris-HCl supplemented with 0.05% sodium azide and with 0.06% bovine serum albumin is used as incubation buffer. In order to determine the non-specific binding, 25 μmole/l of naloxone is additionally added. After the end of the 90 minutes' incubation time the microtiter plates are centrifuged for 20 minutes at 1000 g and the radioactivity is measured in a beta counter (Microbeta-Trilux, PerkinElmer Wallac, Freiburg, Germany). The percentage displacement of the radioactive ligand from its binding to the human μ-opiate receptor at a concentration of the test substances of 1 μmole/l is determined and is given as percentage inhibition of the specific binding.

Row | SMILES | inhibition at 1 µM [%]
1 | CN(CCc1ccccc1)c1oc(C(C2CCC(C(c3cccs3)N(C)C)CC2)N2CCN(Cc3ccccc3)CC2)nc1Cc1ccccc1 (centres unmarked) [compound 54, (4-benzyl-2-{(4-benzyl-piperazin-1-yl)-[4-(dimethylaminothiophen-2-yl-methyl)-cyclohexyl]-methyl}-oxazol-5-yl)-methyl-phenethylamine] | 74
2 | CN(C)C(c1cccs1)C1CCC(C(c2nc(Cc3ccccc3)c(N3CCSCC3)o2)N2CCN(Cc3ccccc3)CC2)CC1 (centres unmarked) [compound 55, ({4-[(4-benzylpiperazin-1-yl)-(4-benzyl-5-thiomorpholin-4-yl-oxazol-2-yl)-methyl]-cyclohexyl}-thiophen-2-yl-methyl)-dimethylamine] | 63
3 | CN(C)C(c1ccc(Cl)cc1)C1CCC(CC(c2nc(Cc3ccccc3)c(N3CCN(Cc4ccccc4)CC3)o2)N2CCCCC2)CC1 (centres unmarked) [compound 56, [(4-{2-[4-benzyl-5-(4-benzyl-piperazin-1-yl)-oxazol-2-yl]-2-piperidin-1-yl-ethyl}-cyclohexyl)-(4-chlorophenyl)-methyl]-dimethylamine] | 62
4 | CC1CCN(c2oc(C(CC3CCC(C(c4ccc(Cl)cc4)N(C)C)CC3)N3CCCCC3)nc2Cc2ccccc2)CC1 (centres unmarked) [compound 57, [(4-{2-[4-benzyl-5-(4-methylpiperidin-1-yl)-oxazol-2-yl]-2-piperidin-1-yl-ethyl}-cyclohexyl)-(4-chlorophenyl)-methyl]-dimethylamine] | 64
5 | CN(Cc1ccccc1)c1oc(C(CC2CCC(C(c3ccc(Cl)cc3)N(C)C)CC2)N2CCCCC2)nc1Cc1ccccc1 (centres unmarked) [compound 58, Benzyl-[4-benzyl-2-(2-{4-[(4-chlorophenyl)-dimethylaminomethyl]-cyclohexyl}-1-piperidin-1-yl-ethyl)-oxazol-5-yl]-methylamine] | 73
6 | CCN(CC)C(CC1CCC(C(c2ccc(Cl)cc2)N(C)C)CC1)c1nc(Cc2ccccc2)c(N2CCC(Cc3ccccc3)CC2)o1 (centres unmarked) [compound 59, (1-[4-benzyl-5-(4-benzylpiperidin-1-yl)-oxazol-2-yl]-2-{4-[(4-chlorophenyl)-dimethylaminomethyl]-cyclohexyl}-ethyl)-diethylamine] | 60
7 | CCN(CC)C(CC1CCC(C(c2ccc(Cl)cc2)N(C)C)CC1)c1nc(Cc2ccccc2)c(N2CCC(C)CC2)o1 (centres unmarked) [compound 60, (1-[4-benzyl-5-(4-methylpiperidin-1-yl)-oxazol-2-yl]-2-{4-[(4-chlorophenyl)-dimethylaminomethyl]-cyclohexyl}-ethyl)-diethylamine] | 68
8 | CCN(CC)C(CC1CCC(C(c2ccc(Cl)cc2)N(C)C)CC1)c1nc(Cc2ccccc2)c(N(C)Cc2ccccc2)o1 (centres unmarked) [compound 61, Benzyl-[4-benzyl-2-(2-{4-[(4-chlorophenyl)-dimethylaminomethyl]-cyclohexyl}-1-diethylamino-ethyl)-oxazol-5-yl]-methylamine] | 76
9 | CN(C)C(c1ccc(Cl)cc1)C1CCC(CC(c2nc(Cc3ccccc3)c(N3CCC(Cc4ccccc4)CC3)o2)N2CCN(Cc3ccccc3)CC2)CC1 (centres unmarked) [compound 62, [{4-[2-[4-benzyl-5-(4-benzyl-piperidin-1-yl)-oxazol-2-yl]-2-(4-benzyl-piperazin-1-yl)-ethyl]-cyclohexyl}-(4-chlorophenyl)-methyl]-dimethylamine] | 87
10 | CN(C)C(c1ccc(Cl)cc1)C1CCC(CC(c2nc(Cc3ccccc3)c(N3CCN(Cc4ccccc4)CC3)o2)N2CCN(Cc3ccccc3)CC2)CC1 (centres unmarked) [compound 63, [{4-[2-[4-benzyl-5-(4-benzylpiperazin-1-yl)-oxazol-2-yl]-2-(4-benzyl-piperazin-1-yl)-ethyl]-cyclohexyl}-(4-chlorophenyl)-methyl]-dimethylamine] | 78
11 | CC1CCN(c2oc(C(CC3CCC(C(c4ccc(Cl)cc4)N(C)C)CC3)N3CCN(Cc4ccccc4)CC3)nc2Cc2ccccc2)CC1 (centres unmarked) [compound 64, [{4-[2-[4-benzyl-5-(4-methylpiperidin-1-yl)-oxazol-2-yl]-2-(4-benzyl-piperazin-1-yl)-ethyl]-cyclohexyl}-(4-chlorophenyl)-methyl]-dimethylamine] | 69
12 | CC1CCN(c2oc(C(CC3CCC(C(c4ccc(F)cc4)N(C)C)CC3)N3CCCCC3)nc2Cc2ccccc2)CC1 (centres unmarked) [compound 65, [(4-{2-[4-benzyl-5-(4-methylpiperidin-1-yl)-oxazol-2-yl]-2-piperidin-1-yl-ethyl}-cyclohexyl)-(4-fluorophenyl)-methyl]-dimethylamine] | 61
13 | CN(Cc1ccccc1)c1oc(C(CC2CCC(C(c3ccc(F)cc3)N(C)C)CC2)N2CCCCC2)nc1Cc1ccccc1 (centres unmarked) [compound 66, Benzyl-[4-benzyl-2-(2-{4-[dimethylamino-(4-fluorophenyl)-methyl]-cyclohexyl}-1-piperidin-1-yl-ethyl)-oxazol-5-yl]-methylamine] | 65
14 | CCN(CC)C(CC1CCC(C(c2ccc(F)cc2)N(C)C)CC1)c1nc(Cc2ccccc2)c(N2CCC(Cc3ccccc3)CC2)o1 (centres unmarked) [compound 67, (1-[4-benzyl-5-(4-benzyl-piperidin-1-yl)-oxazol-2-yl]-2-{4-[dimethylamino-(4-fluorophenyl)-methyl]-cyclohexyl}-ethyl)-diethylamine] | 64
15 | CCN(CC)C(CC1CCC(C(c2ccc(F)cc2)N(C)C)CC1)c1nc(Cc2ccccc2)c(N2CCN(Cc3ccccc3)CC2)o1 (centres unmarked) [compound 68, (1-[4-benzyl-5-(4-benzyl-piperazin-1-yl)-oxazol-2-yl]-2-{4-[dimethylamino-(4-fluorophenyl)-methyl]-cyclohexyl}-ethyl)-diethylamine] | 60
16 | CCN(CC)C(CC1CCC(C(c2ccc(F)cc2)N(C)C)CC1)c1nc(Cc2ccccc2)c(N2CCC(C)CC2)o1 (centres unmarked) [compound 69, (1-[4-benzyl-5-(4-methylpiperidin-1-yl)-oxazol-2-yl]-2-{4-[dimethylamino-(4-fluorophenyl)-methyl]-cyclohexyl}-ethyl)-diethylamine] | 82
17 | CCN(CC)C(CC1CCC(C(c2ccc(F)cc2)N(C)C)CC1)c1nc(Cc2ccccc2)c(N(C)Cc2ccccc2)o1 (centres unmarked) [compound 70, Benzyl-[4-benzyl-2-(1-diethylamino-2-{4-[dimethylamino-(4-fluorophenyl)-methyl]-cyclohexyl}-ethyl)-oxazol-5-yl]-methylamine] | 60
18 | CC1CCN(c2oc(C(CC3CCC(C(c4ccc(F)cc4)N(C)C)CC3)N3CCN(Cc4ccccc4)CC3)nc2Cc2ccccc2)CC1 (centres unmarked) [compound 71, [{4-[2-[4-benzyl-5-(4-methylpiperidin-1-yl)-oxazol-2-yl]-2-(4-benzyl-piperazin-1-yl)-ethyl]-cyclohexyl}-(4-fluorophenyl)-methyl]-dimethylamine] | 67
19 | CN(C)C(c1cccs1)C1CCC(CC(c2nc(Cc3ccccc3)c(N3CCC(Cc4ccccc4)CC3)o2)N2CCCCC2)CC1 (centres unmarked) [compound 72, [(4-{2-[4-benzyl-5-(4-benzyl-piperidin-1-yl)-oxazol-2-yl]-2-piperidin-1-yl-ethyl}-cyclohexyl)-thiophen-2-yl-methyl]-dimethylamine] | 69
20 | CN(C)C(c1cccs1)C1CCC(CC(c2nc(Cc3ccccc3)c(N3CCN(Cc4ccccc4)CC3)o2)N2CCCCC2)CC1 (centres unmarked) [compound 73, [(4-{2-[4-benzyl-5-(4-benzyl-piperazin-1-yl)-oxazol-2-yl]-2-piperidin-1-yl-ethyl}-cyclohexyl)-thiophen-2-yl-methyl]-dimethylamine] | 94
